In US7166620B2 (dated 2007):

melting point: 59 °C
SMILES: CO/C=C(/C(=O)OC)c1ccccc1COc1nc(C(F)(F)F)sc1C
